The values that follow come from PubChem BioAssay AID1963981 (Molecular Pharmacology Branch, DTP, NCI, 2024).

SMILES strings stand for the structures.

This test has as its system 354836-022-R-J1-PDC multicell spheroid viability. Briefly: Anticancer human tumor 354836-022-R-J1-PDC patient-derived head and neck squamous cell carcinoma cell line growth inhibition [PI3K]. As to conditions: for viability, T/C: stronger effect = lower value. The source says:
Combinatorial screen of targeted agents with the PI3K inhibitors inavolisib, alpelisib, duvelisib, and copanlisib in multi-cell type tumor spheroids
A high-throughput screen of multi-cell type tumor spheroids was designed to identify active combinations of targeted small molecules and PI3K pathway inhibitors. Complex spheroids include a stromal component modeled by human endothelial cells (HUVEC) and fibroblasts modeled by human mesenchymal stem cells (MSCs). The concentration ranges selected for each drug and investigational agent were based upon clinically achievable concentrations if the clinical Cmax of the agent was known.
Compounds. The drugs and investigational agents: inavolisib (NSC800729), alpelisib (NSC765974), duvelisib (NSC772469), copanlisib (NSC816437), ipatasertib (NSC767898), afuresertib (NSC778305), talazoparib (NSC767125), sapanisertib (NSC764658), selumetinib (NSC741078), tovorafenib (DAY101, NSC766906), vemurafenib (NSC761431), ravoxertinib (NSC781343), sotorasib (NSC818433), MRTX1133 (NSC 836407), abemaciclib (NSC 768073), palbociclib (NSC758247), venetoclax (NSC 766270), SY5609 (NSC837396), enzalutamide (NSC755605), and darolutamide (NSC825331), were obtained from the National Cancer Institute (NCI) Developmental Therapeutics Program Chemical Repository. The FDA-approved anticancer drug set is available from the NCI Developmental Therapeutics Program. […] The stock solutions were prepared in dimethyl sulfoxide (DMSO, Sigma-Aldrich, St. Louis, MO, cat. D2650) at 800-fold the tested concentration and stored at -70 degrees C prior to their use. All drugs and investigational agents were tested over a range starting from a high concentration at or near the clinical Cmax and decreasing in half-log increments. If the clinical Cmax for an agent had not been determined, the highest concentration tested was 10 microM.
Cell Culture. All cells were maintained in an incubator at 37 degrees C and 5% CO2 with 95% humidity. The PDC lines were cultured according to standard operating procedures established by the NCI PDMR (https://pdmr.cancer.gov/sops/default.htm). All PDCs were thawed and cultured in Matrigel-coated flasks prepared with a working solution of 1X Ham's F-12 nutrient mix, without supplementation (Invitrogen, Waltham, MA, cat. 11765054), 100 U/mL penicillin-streptomycin (Invitrogen, cat. 15140122), and 2.5% Matrigel (Corning Inc., Corning, NY, cat. 354248) for the first three passages. The 354836-022-R-J1-PDC, 475296-252-R-J1-PDC, and 997726-040-R-J2-PDC lines were cultured in 6A media, which includes advanced DMEM/F-12 (Thermo Fisher Scientific, cat. 12634028), 10 mM HEPES (Thermo Fisher Scientific, cat. 15630080), 1X GlutaMAX supplement (Thermo Fisher Scientific, cat. 35050061), 0.1 mg/mL primocin (InvivoGen, San Diego, CA, cat. ant-pm-2), 10% defined fetal bovine serum, heat inactivated (HyClone Laboratories Inc., Logan, UT, cat. SH30070.03HI), 50% L-WRN conditioned media (ATCC, cat. CRL-3276), 1.25 mM N-Acetyl-L-cysteine (Sigma-Aldrich, cat. A9165), 10 mM nicotinamide (Sigma-Aldrich, cat. N0636), 1X B-27 supplement (Thermo Fisher Scientific, cat. 17504044), 1X N-2 supplement (Thermo Fisher Scientific, cat. 17502048), and 10 microM Y-27632 dihydrochloride (Tocris Bioscience, Bristol, United Kingdom, cat. 1254). The 624824-186-R-J2-PDC line was cultured in 6C/Colon 1B media, which includes all 6A media components plus 50 ng/mL human EGF recombinant protein (Thermo Fisher Scientific, cat. PHG0311). […]
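Further: spheroids exposed to agents for seven days before the viability read.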

As for `C#Cc1c(F)ccc2cc(O)cc(-c3ncc4c(N5CC6CCC(C5)N6)nc(OCC56CCCN5CC(F)C6)nc4c3F)c12` (stereo not drawn), the viability, T/C by setting is: (compound 0.0316 µM) 101% [middle of 4 runs]; (compound 0.1 µM) 101% [middle of 4 runs]; (compound 1 µM) 87.7% [middle of 4 runs]; (compound 3.16 µM) 95.4% [middle of 4 runs]; (compound 10 µM) 90.5% [middle of 4 runs]. Further, for the setting “curve of compound”, the IC50 is over 10 µM.

For the compound `C=CC(=O)N1CCN(c2nc(=O)n(-c3c(C)ccnc3C(C)C)c3nc(-c4c(O)cccc4F)c(F)cc23)C(C)C1` (stereo not drawn), the viability, T/C by setting is: (compound 0.0316 µM) 114% [middle of 4 runs]; (compound 0.1 µM) 95.3% [middle of 4 runs]; (compound 0.316 µM) 99.3% [middle of 4 runs]; (compound 10 µM) 95.1% [middle of 4 runs]. Also, the IC50 (curve of compound) is over 10 µM.

In the case of `CC1(C)CCC(Nc2ncc(C(F)(F)F)c(-c3c[nH]c4c(P(C)(C)=O)c(C#N)ccc34)n2)CN1` (stereo not drawn), the viability, T/C reads like this: (compound 0.0316 µM) 21.9% [middle of 4 runs]; (compound 0.1 µM) 19.9% [middle of 4 runs]; (compound 0.316 µM) 20.8% [middle of 4 runs]; (compound 1 µM) 21.9% [middle of 4 runs]; (compound 3.16 µM) 32% [middle of 4 runs]; (compound 10 µM) 2.79% [middle of 4 runs]. Further, the IC50 (curve of compound) was under 0.0316 µM.

On to `CCCS(=O)(=O)Nc1ccc(F)c(C(=O)c2c[nH]c3ncc(-c4ccc(Cl)cc4)cc23)c1F`, for which the viability, T/C is 109% [middle of 4 runs] (compound 0.1 µM); 104% [middle of 4 runs] (compound 0.316 µM); 91.5% [middle of 4 runs] (compound 1 µM); 86% [middle of 4 runs] (compound 3.16 µM); 24.8% [middle of 4 runs] (compound 10 µM). In addition, under “curve of compound”, the IC50 is 6.06 µM [middle of 4 runs].

Consider `Cn1ncc(Cl)c1-c1cc(C(=O)NC(CN)Cc2cccc(F)c2)sc1Cl` (stereo not drawn), for which the viability, T/C reads like this: (compound 0.0316 µM) 83.5% [middle of 4 runs]; (compound 0.1 µM) 51.3% [middle of 4 runs]; (compound 0.316 µM) 35.9% [middle of 4 runs]; (compound 1 µM) 22.7% [middle of 4 runs]; (compound 3.16 µM) 15.5% [middle of 4 runs]; (compound 10 µM) 5.55% [middle of 4 runs]. For the same compound, the IC50 (curve of compound) was 114 nM [middle of 4 runs].

Regarding `Cn1cnc2c(F)c(Nc3ccc(Br)cc3Cl)c(C(=O)NOCCO)cc21` + CC(Nc1ccc2c(c1)OCCn1cc(N3C(=O)OCC3C(F)F)nc1-2)C(N)=O, the IC50 reads like this: (curve of first compound, second compound 0.00316 µM) over 3 µM; (curve of first compound, second compound 0.01 µM) over 3 µM; (curve of first compound, second compound 0.0316 µM) over 3 µM; (curve of first compound, second compound 0.1 µM) over 3 µM; (curve of first compound, second compound 0.316 µM) 2.27 µM; (curve of first compound, second compound 1 µM) 0.252 µM. The viability, T/C (second compound 0.00316 µM, first compound 0.00949 µM) was 98%; the viability, T/C (second compound 0.00316 µM, first compound 0.03 µM) was 75.2%; the viability, T/C (second compound 0.00316 µM, first compound 0.0949 µM) is 92.6%; the viability, T/C (second compound 0.00316 µM, first compound 0.3 µM) is 78%; the viability, T/C (second compound 0.00316 µM, first compound 0.949 µM) was 79.2%; the viability, T/C (second compound 0.00316 µM, first compound 3 µM) was 54.9%. Besides, the viability, T/C (second compound 0.01 µM, first compound 0.00949 µM) was 93.2%; the viability, T/C (second compound 0.01 µM, first compound 0.03 µM) is 78.7%; the viability, T/C (second compound 0.01 µM, first compound 0.0949 µM) was 87%; the viability, T/C (second compound 0.01 µM, first compound 0.3 µM) was 78.7%; the viability, T/C (second compound 0.01 µM, first compound 0.949 µM) is 75.6%; the viability, T/C (second compound 0.01 µM, first compound 3 µM) is 56%. For the same compound, the viability, T/C by setting is: (second compound 0.0316 µM, first compound 0.00949 µM) 90%; (second compound 0.0316 µM, first compound 0.03 µM) 97.1%; (second compound 0.0316 µM, first compound 0.0949 µM) 96%; (second compound 0.0316 µM, first compound 0.3 µM) 83.5%; (second compound 0.0316 µM, first compound 0.949 µM) 83.7%; (second compound 0.0316 µM, first compound 3 µM) 65.1%. In addition, the viability, T/C was 88.4% (second compound 0.1 µM, first compound 0.00949 µM); 87.3% (second compound 0.1 µM, first compound 0.03 µM); 84.2% (second compound 0.1 µM, first compound 0.0949 µM); 80.5% (second compound 0.1 µM, first compound 0.3 µM); 81.6% (second compound 0.1 µM, first compound 0.949 µM); 55.9% (second compound 0.1 µM, first compound 3 µM). Further, the viability, T/C runs as follows: (second compound 0.316 µM, first compound 0.00949 µM) 80.9%; (second compound 0.316 µM, first compound 0.03 µM) 81%; (second compound 0.316 µM, first compound 0.0949 µM) 67.1%; (second compound 0.316 µM, first compound 0.3 µM) 68%; (second compound 0.316 µM, first compound 0.949 µM) 63.4%; (second compound 0.316 µM, first compound 3 µM) 45.4%. In addition, the viability, T/C runs as follows: (second compound 1 µM, first compound 0.00949 µM) 72.2%; (second compound 1 µM, first compound 0.03 µM) 57.1%; (second compound 1 µM, first compound 0.0949 µM) 55.4%; (second compound 1 µM, first compound 0.3 µM) 52.8%; (second compound 1 µM, first compound 0.949 µM) 40.8%; (second compound 1 µM, first compound 3 µM) 24.7%.
